The record followed here is patent US11945826B2, “Hydroxypyridoxazepines as NRF2 activators” (GLAXOSMITHKLINE INTELLECTUAL PROPERTY DEVELOPMENT LIMITED, priority 2019, dated 2024).

Series [1] is described as follows: Mouse Plasma Protein Binding Study. It counts as in vitro ADME. The following applies: heparinized mouse plasma, pH 7.5, ultracentrifugation 37° C. 3 hours, read-out: Plasma Protein Binding, % bound (converted). As to the method:
Stock solutions of the compound of Example 1, herein, and Compound A (the compound of Example 1 of WO 2018/109646), were prepared in dimethyl sulfoxide (DMSO) at a concentration of 1 mg/mL. Incubation mixtures were prepared by diluting the stock solution into heparinized mouse plasma to a concentration of 2000 ng/mL. The final concentration of DMSO was 0.2%. The thawed plasma was centrifuged to remove any debris. If necessary, the pH of the plasma sample was adjusted to approximately 7.5 with 1% aqueous phosphoric acid prior to use. Incubation mixtures were prepared. Triplicate 10 μL aliquots of each incubation mixture were collected and analyzed to verify initial compound concentration. Four aliquots of each incubation mixture were placed into separate polyallomer ultracentrifuge tubes. The incubation mixtures were centrifuged in a Beckman Type 42.2 Ti rotor at 42,000 rpm (214,361×g) at 37° C. for 3 hours with maximum acceleration and deceleration. […] The samples were quick frozen on solid carbon dioxide and stored at approximately −80° C. until analyzed by liquid chromatography/tandem mass spectroscopy (LC/MS/MS) for test compound concentration. Total recovery of compound from the ultracentrifugation tubes was calculated with the following formula: […]
Percent unbound (Fu) by ultracentrifugation was calculated with the following formula: […]

A short description of another series: Mouse PK Study. It counts as in vivo. As to conditions: male CD1 mice, 30 mg/kg oral suspension, blood. As to the method:
All studies were conducted after review by the GSK Institutional Animal Care and Use Committee and in accordance with the GSK Policy on the Care, Welfare and Treatment of Laboratory Animals. The oral suspension pharmacokinetic study was carried out on a single study day; a total of three male CD1 mice were used.
(§1) The compounds used in this study were the compound of Example 1, herein, and Compound A (the compound of Example 1 of WO 2018/109646).
The oral suspension dose was prepared in 1% aqueous methylcellulose. Each animal received a nominal dose of 30 mg/kg (10 mL/kg dose volume) as an oral gavage. Blood samples (approximately 0.025 mL each) were collected from a tail vein. Blood samples were collected prior to dosing and at target times of 15, 30, 60, 120, 240, 480, and 1440 minutes following oral gavage. A 25 μL aliquot was added to a non-heparinized tube containing 25 μL water and quick frozen on solid carbon dioxide and stored at approximately −80° C. until analyzed by liquid chromatography/tandem mass spectroscopy (LC/MS/MS) for test compound concentration.
Pharmacokinetic parameters for all in vivo PK studies were calculated using non-compartmental methods with Phoenix WinNonlin version 6.1.0 or 8.1.0. All parameters were calculated using actual blood sampling times and actual dosages for each animal. […]

A further series can be described thus: Rat PK Study. It counts as in vivo. The following applies: plasma, nominal 1 mg/kg 30-minute intravenous infusion; for MRT: read-out: Rat Pharmacokinetics MRT; for clearance: read-out: Rat Pharmacokinetics Total Clearance. How it is done: All studies were conducted after review by the GSK Institutional Animal Care and Use Committee and in accordance with the GSK Policy on the Care, Welfare and Treatment of Laboratory Animals. This study was conducted with a crossover design on two study days with a one-day recovery period between each study day. At least three days prior to the start of the study, three rats received surgically implanted femoral vein, femoral artery, and gastric catheters for infusion of test molecules, blood sampling, and oral dose administration, respectively. Dose solutions were filtered prior to administration and the actual dosage administered to the animals was quantified. All PK parameters were calculated based on the actual dosage administered to each animal. Urine was collected from 0-24 h following iv administration from each animal for determination of renal clearance.
as §1
The dose for intravenous administration was prepared in 20% Cavitron™ and 5% DMSO. The intravenous dose formulation was filtered through a 0.22-micron polytetrafluoroethylene (PTFE) filter prior to administration. The dose for oral solution administration was prepared in 6% Cavitron™ and 5% DMSO and was filtered through a 0.22-micron VWR PTFE filter prior to administration.
Each animal received a nominal dose of 1 mg/kg (4 mL/kg dose volume) as a 30-minute intravenous infusion on study day one. On study day two, each animal received a nominal dose of 2 mg/kg (16 mL/kg dose volume) as an oral gavage. Blood samples (approximately 0.11 mL each) were collected from the femoral artery catheter. […] Plasma was isolated from blood by centrifugation and a 30 μL aliquot was transferred to a non-heparinized tube, quick frozen on solid carbon dioxide and stored at approximately −80° C. until analyzed by liquid chromatography/tandem mass spectroscopy (LC/MS/MS) for test compound concentration.
Pharmacokinetic parameters for all in vivo PK studies were calculated using non-compartmental methods with Phoenix WinNonlin version 6.1.0 or 8.1.0. All parameters were calculated using actual blood sampling times and actual dosages for each animal. The extrapolated area under the curve (AUC0-inf) was determined using unweighted linear regression analysis of at least three log transformed concentrations visually assessed to be on the linear portion of the terminal elimination slope. Oral solution bioavailability was calculated in a non-crossover fashion using the mean intravenous dose and AUC0-inf values from the two intravenously dosed animals for the monkey PK study and in a crossover fashion for the rat PK study.

Structures are written as SMILES.

A word on the MRT: it is a mean duration of stay, worked out from the concentration-time curve. A word on the clearance: it is the rate of elimination divided by the concentration.

For the compound `CC[C@@H]1CN(Cc2cc([C@@H](CC(=O)O)c3ccc4c(nnn4C)c3C)ccc2C)Cc2ncccc2O1` [Compound A, reference compound], in series [1], the fraction unbound at 3 h, 2000 ng/mL was 0.003. The “Mouse Pharmacokinetics Clearance/Bioavailability” value in the series “Mouse PK Study” turned out to be 31 mL/min/kg. In the series “Rat PK Study”, the MRT is 4 h and the clearance was determined as 1.9 mL/min/kg.

On to `CC[C@@H]1CN(Cc2cc([C@@H](CC(=O)O)c3ccc4c(nnn4C)c3C)ccc2C)Cc2nc(O)ccc2O1` [Example 1, (R)-3-(1,4-dimethyl-1H-benzo[d][1,2,3]triazol-5-yl)-3-(3-(((R)-2-ethyl-7-hydroxy-2,3-dihydropyrido[2,3-f][1,4]oxazepin-4(5H)-yl)methyl)-4-methylphenyl)propanoic acid], for which the fraction unbound at 3 h, 2000 ng/mL in series [1] is 0.084. Also, the “Mouse Pharmacokinetics Clearance/Bioavailability” value in the series “Mouse PK Study” is reported as 15.6 mL/min/kg. In the series “Rat PK Study”, the MRT was determined as 6.5 h and the clearance came out at 5.2 mL/min/kg.
